Measurements taken from patent US7678812B2, “Aminotetralin-derived urea modulators of vanilloid VR1 receptor” (Janssen Pharmaceutica NV, priority 2002, dated 2010).
pIC50, pKi: −log10 of the molar value. “And” between values parts separate entries of the source, which are not always exact repeats. Equal entries are not always repeated. Where two headings read alike, the source gives them in different places.

Legend:
[1] = test system: capsaicin-induced guinea pig bronchial ring contraction; assay: Isolated guinea pig bronchial rings, capsaicin-induced contraction (organ bath); conditions: capsaicin concentration-response shift; 105 at 1000 nM; ±SEM
Description: Aminotetralin VR1 antagonists were tested for their potency to block capsaicin-induced guinea pig bronchial ring contraction in a standard in vitro organ bath assay [Tucker, 2001]. Two mm rings of bronchial tissue obtained from male guinea pigs (325 g) were suspended in normal Krebs solution between two wire hooks under an initial loading tension of 1 gram. The saline was maintained in a 5% CO2 and 95% O2 atmosphere at 37° C. in the presence of indomethacin (5 μM). A sub-maximal dose of 5-Methylfurmethide (5Mef, 1 μM) was added to each tissue to determine responsiveness using an isometric force transducer. After washout, tissues were exposed to compounds or vehicle for 30 min, treated with thiorphan (10 μM, 5% Na2CO3), and primed using KCl in increasing linear concentrations from 1 mM at 1 mM intervals until a slight increase in muscle tone was induced (˜1% of 5Mef response). […] The dose response curve was calculated as % max of the 5-Mef response and estimated pA2 were determined [Tucker, 2001]).

[2] = target: T1, hVR1 receptors (Homo sapiens, UniProt Q8NER1); assay: [3H] RTX binding assay, human VR1; parameters: expressed in transfected cells; host or cells: HEK293 (membrane preparation); conditions: inhibition of [3H] RTX binding, membranes of HEK293 cells transfected with human VR1
Description: Compounds of the present invention were tested for their ability to inhibit the binding of [^3H] RTX to hVR1 receptors in a [^3H] RTX binding assay as previously described (Zhang, Sui-Po. Improved ligand binding assays for vanilloid receptors. PCT Int. Appl. (2002), 29 pp. CODEN: PIXXD2 WO 0233411 A1 20020425 AN 2002:315209; Grant, Elfrida R.; Dubin, Adrienne E.; Zhang, Sui-Po; Zivin, Robert A.; Zhong, Zhong Simultaneous intracellular calcium and sodium flux imaging in human vanilloid receptor 1 (VR1)-transfected human embryonic kidney cells: a method to resolve ionic dependence of VR1-mediated cell death. Journal of Pharmacology and Experimental Therapeutics (2002), 300(1), 9-17.)
HEK293 cells were transfected with human VR1 vanilloid receptors and washed with Hank's Balanced Salt Solution, dissociated with cell dissociation buffer (Sigma), and then centrifuged at 1000×g for 5 min. Cell pellets were homogenized in cold 20 mM HEPES buffer, pH 7.4, containing 5.8 mM NaCl, 320 mM sucrose, 2 mM MgCl2, 0.75 CaCl2 and 5 mM KCl and centrifuged at 1000×g for 15 min. The resultant supernate was then centrifuged at 40000×g for 15 min. The pelleted membranes were kept in an −80° C. freezer.
Approximately 120 μg protein/ml from membranes were incubated with indicated concentrations of [^3H] RTX in 0.5 ml of the HEPES buffer (pH 7.4) containing 0.25 mg/mL fatty acid-free bovine serum albumin at 37° C. for 60 min. The reaction mixture was then cooled to 4° C., 0.1 mg α1-acid glycoprotein added to each sample and incubated at 4° C. for 15 min. The samples were centrifuged at 18500×g for 15 min. The tip of the microcentrifuge tube containing the pellet was cut off. Bound radioactivity was quantified by scintillation counting. Non-specific binding was tested in the presence of 200 nM unlabeled RTX.

[3] = target: T2, VR1 expressed endogenously on small rat dorsal root ganglion (DRG) neurons (Rattus norvegicus, UniProt O35433); assay: Electrophysiologic functional assay using dissociated rat DRG cells (whole cell patch clamp); type: cell-based; conditions: compound concentration 1 uM; initial response to 0.3 uM capsaicin
T2 construct: VR1 expressed endogenously on small rat dorsal root ganglion (DRG) neurons; endogenous in cells; host or cells: dissociated DRG neurons from normal rats
Description: Compounds 42, 95, 101, 105 and 106 were tested for their activity on VR1 expressed endogenously on small rat dorsal root ganglion (DRG) neurons. DRG neurons from normal rats were dissociated (see methods in Chaplan et al., 2003) and whole cell currents mediated by VR1 were recorded using the whole cell patch clamp technique. […] This was followed by application of 10 μM CAP in the presence of compound. […] The ability of 1 and 10 μM CAP to cause an increased current after exposure to a compound of the invention was compared to controls.

[4] = test system: carrageenan paw-induced thermal hyperalgesia; assay: Carrageenan paw-induced thermal hyperalgesia; type: in vivo, rat; conditions: Rattus norvegicus, po
Description: Each rat was placed on a heated surface (51° C.) in order to measure the time necessary to elicit a response, and an initial (baseline) response time to a thermal stimuli was recorded for each animal. A response is defined as any shaking, licking, or tucking of the treated paw or jumping. Animals not treated with a test compound respond in approximately 20 seconds. The maximal exposure time permitted is 60 seconds to prevent tissue damage. Rats were injected with an irritant (e.g., 1% carrageenan solution in 0.9% saline) subcutaneously into the sub-plantar tissue of the left hind paw to stimulate an acute inflammatory reaction.
Two hours later, the response time of the animal to the thermal stimulus was evaluated and compared to the animal's baseline response time. This shorter response time was recorded as percent hyperalgesia (% H). A cut-off value for % H (usually 75%) was used during analysis to ensure that the animals were hyperalgesic. Animals were then dosed with test drug or vehicle.
At some time(s) later (typically 45 and 90 minutes), the response time of the animal to the thermal stimulus was again evaluated. For each time point, a percent reversal of hyperalgesia (% R) was calculated using the following formula: % R=(Drug Latency−Carrageenan latency)/(Baseline latency−Carrageenan latency). ED50 values were calculated from % R obtained at several drug doses.

[5] = target: T3, Rat VR1 (Rattus norvegicus, UniProt O35433); assay: [3H]-RTX binding assay using rat tissue (spinal cord); parameters: Rat spinal cord was homogenized twice with a Polytron; from tissue; host or cells: rat spinal cord membranes; conditions: rat spinal cord membranes
Description: Alternatively, a binding assay using rat tissue was used. Rat spinal cord was homogenized twice with a Polytron and centrifuged at 3000 rpm for 10 min in HEPES buffer containing 20 mM HEPES, pH 7.4, NaCl 5.8 mM, sucrose 320 mM, MgCl2 2 mM, CaCl2 0.75 mM and KCl 5 mM. The supernatant was then centrifuged at 18,000 rpm for 20 min. The pellet was saved in a tube and 10 ml assay buffer was added into the tube. The pellet and buffer were mixed with a Polytron. The assay contained 120 μg/ml membrane protein and 0.3-0.6 nM [^3H]-RTX (NEN, Boston) in a total volume of 0.5 ml HEPES buffer. Following-incubation for 60 min at 37 C, the samples were cooled down on ice, and 100 mg of α-acid glycoprotein were added into the samples. After centrifugation at 13,000 rpm for 15 min, the supernatant was aspirated and the tips of tubes were cut off and placed into 6 ml vials. Data were calculated according to the equation: % inhibition=(total binding−binding)*100/(total binding−non specific binding). Ki value values were calculated using a Prism program.

[6] = target: T1, hVR1 receptors; assay: Broadly stimulated recombinant human VR1 functional assay (Ca2+ influx, FLIPR); type: cell-based; parameters: expressed in transfected cells; host or cells: HEK293
[7] = target: T3, Rat VR1; assay: Broadly stimulated recombinant rat VR1 functional assay (Ca2+ influx, FLIPR); type: cell-based; parameters: expressed in transfected cells
Source text: When nociceptors are exposed to tissue damaging stimuli, VR1 receptors are activated by a plethora of stimuli. In an effort to identify potent and efficacious antagonists at human and rat VR1 that were active under conditions simulating aspects of in vivo inflammation functional assays were developed using FLIPR to determine antagonist activity against endogenous activators and stimuli likely to be present in inflammation. Cell lines were constructed that stably expressed recombinant rat VR1 (rVR1/HEK293). Cells were exposed to various stimuli at their EC80, with the exception of the low pH and DTT stimuli.
Phoshorylation by PKC. […] Cells were challenged with 300 nM PMA (˜EC80) after 3 min in the indicated antagonist.
Anandamide. Anandamide is a brain-derived cannabinoid ligand that acts as a near full agonist at VR1 at low μM concentrations [Smart, 2000 #507].
Reactive oxygen species: Disturbances in the regulatory activities of free radicals may play a role in inflammation [Winrow, 1993]. Reactive oxygen species (ROS) such as H2O2 are formed in inflamed joints.
Reducing agents: The reducing agent DTT also directly activates VR1 [Vyklicky, 2002]. Cells were challenged with 5-10 mM DTT to stimulate VR1 after 3 min incubation in compound.
Since many of our animal models were in rat, we cloned the rat VR1 and expressed it stably in HEK293 cells.

[8] = test system: capsaicin-induced cough responses; assay: Capsaicin-induced cough (antitussive efficacy); type: in vivo, guinea pig; conditions: codeine 25 mg/kg IP at -60 min; capsaicin aerosol 15 μM; vehicle 3.0±0.5; P<0.001
Description: The antitussive activity of intraperitoneally (IP) administered compound is assessed at a single dose level against capsaicin-induced cough responses as compared to positive and vehicle controls. Thirty-six male Dunkin-Hartley guinea pigs (295-590 g, mean=425 g) are randomly allocated to one of three groups (n=12 guinea pigs per group). […] Guinea pigs are dosed IP at —60 min with vehicle (15% Solutol in 5% dextrose solution); the positive control codeine (25 mg/kg), or test compound (20 mg/kg in 15% Solutol in 5% dextrose solution). Individual guinea pigs are placed in an exposure chamber with an airflow of 3 L/min at —10 min to acclimatize. […] The mean ±SEM number of capsaicin-induced cough responses recorded in vehicle pre-treated guinea pigs was 3.0±0.5. […] ANOVA statistical analysis was used to determine the level of significance.

[9] = recombinant human VR1, stimulus low pH (pH 6.5), Ca2+ influx, read-out: IC50, Low pH
[10] = recombinant rat VR1, stimulus anandamide 10 μM, Ca2+ influx, read-out: IC50, Anandamide

T3 sequence (O35433 whole entry): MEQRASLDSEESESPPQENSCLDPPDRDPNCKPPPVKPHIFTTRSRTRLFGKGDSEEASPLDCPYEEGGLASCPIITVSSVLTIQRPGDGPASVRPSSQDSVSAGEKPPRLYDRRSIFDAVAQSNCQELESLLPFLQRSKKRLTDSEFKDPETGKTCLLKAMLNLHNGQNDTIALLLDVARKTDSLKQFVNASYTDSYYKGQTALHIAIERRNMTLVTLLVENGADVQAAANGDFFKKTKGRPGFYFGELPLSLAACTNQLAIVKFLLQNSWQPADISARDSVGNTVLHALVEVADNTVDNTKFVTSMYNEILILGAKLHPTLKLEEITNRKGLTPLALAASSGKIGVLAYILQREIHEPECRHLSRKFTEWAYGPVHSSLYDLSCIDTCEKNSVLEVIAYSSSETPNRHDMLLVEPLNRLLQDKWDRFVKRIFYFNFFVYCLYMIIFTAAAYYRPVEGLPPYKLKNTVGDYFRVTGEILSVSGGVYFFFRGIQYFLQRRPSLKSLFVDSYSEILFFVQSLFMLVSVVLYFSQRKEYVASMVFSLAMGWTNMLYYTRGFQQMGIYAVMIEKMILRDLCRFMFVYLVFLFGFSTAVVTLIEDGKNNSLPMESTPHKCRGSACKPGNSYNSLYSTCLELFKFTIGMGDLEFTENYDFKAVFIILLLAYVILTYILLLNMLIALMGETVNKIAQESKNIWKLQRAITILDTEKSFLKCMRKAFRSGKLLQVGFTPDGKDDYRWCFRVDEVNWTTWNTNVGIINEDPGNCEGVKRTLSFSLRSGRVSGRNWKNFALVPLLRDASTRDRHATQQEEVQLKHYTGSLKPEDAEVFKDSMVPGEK
T1 sequence (Q8NER1 whole entry): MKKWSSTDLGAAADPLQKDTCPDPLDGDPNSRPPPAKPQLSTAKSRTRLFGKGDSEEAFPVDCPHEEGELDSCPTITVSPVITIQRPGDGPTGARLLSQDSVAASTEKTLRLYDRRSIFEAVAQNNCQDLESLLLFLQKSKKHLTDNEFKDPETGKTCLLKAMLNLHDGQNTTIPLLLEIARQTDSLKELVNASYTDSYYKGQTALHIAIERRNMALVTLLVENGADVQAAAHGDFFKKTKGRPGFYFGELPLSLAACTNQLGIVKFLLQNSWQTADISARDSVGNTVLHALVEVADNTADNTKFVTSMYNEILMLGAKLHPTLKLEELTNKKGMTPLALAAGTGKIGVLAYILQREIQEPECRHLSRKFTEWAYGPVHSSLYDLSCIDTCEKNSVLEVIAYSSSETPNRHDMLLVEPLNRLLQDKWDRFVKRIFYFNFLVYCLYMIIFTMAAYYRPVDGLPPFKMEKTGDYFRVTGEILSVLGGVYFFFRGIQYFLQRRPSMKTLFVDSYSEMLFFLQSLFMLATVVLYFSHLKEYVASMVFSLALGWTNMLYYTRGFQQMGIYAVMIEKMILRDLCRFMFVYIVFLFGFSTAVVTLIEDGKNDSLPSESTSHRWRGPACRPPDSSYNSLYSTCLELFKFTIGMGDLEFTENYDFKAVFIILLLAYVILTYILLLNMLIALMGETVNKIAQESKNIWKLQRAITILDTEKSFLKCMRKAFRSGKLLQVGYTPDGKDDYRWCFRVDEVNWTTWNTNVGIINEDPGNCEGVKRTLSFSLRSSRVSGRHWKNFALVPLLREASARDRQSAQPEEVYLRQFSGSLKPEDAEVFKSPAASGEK
T2 sequence (O35433 whole entry): as the sequence (O35433 whole entry) above

Question: `O=C(Nc1cccc2cnccc12)NC1CCc2cc(F)ccc2C1Cc1ccccc1` (racemic) [Compound 38a, 1-(1-Benzyl-6-fluoro-1,2,3,4-tetrahydronaphthalene-2-yl)-3-isoquinolin-5-yl-urea] was tested. Which “Estimated pA2” value [1] did it give?
Answer: Its value is 8.0 and 8.0±0.02.

Question: And the pKi [2]?
Answer: Its pKi is 8.75.

Question: Which “Estimated pA2” value [1] does the source give for `O=C(Nc1cccc2c(Cl)nccc12)NC1CCc2cc(F)ccc2C1Cc1ccccc1` (single isomer, unassigned) [Compound 105] here?
Answer: Its value is 6.2 and 6.2±0.11 and 6.2 +/− 0.11.

Question: What about the “% of the initial CAP response in presence of 1 uM CAP” value [3] of the same molecule?
Answer: Its value is 0% and 8%.

Question: What about the ED50 ([4]; 1.5 h, p.o., at 90 min, read-out: ED50) of the same molecule?
Answer: Its ED50 is 0.394 mg/kg.

Question: And the pKi [5]?
Answer: Its pKi is 5.31.

Question: What about the pKi [2] of the same molecule?
Answer: The pKi was 7.97.

Question: Which results are given for `COc1ccc2c(c1)CCC(NC(=O)Nc1cccc3cnccc13)C2Cc1ccccc1` (stereo not shown) [Compound 33, 1-(1-Benzyl-6-methoxy-1,2,3,4-tetrahydronaphthalene-2-yl)-3-isoquinolin-5-yl-urea]?
Answer: Estimated pA2 [1]: 8.0 +/− 0.02; ED50 ([4]; reversal of hyperalgesia, read-out: CgHP ED50): 0.276 mg/kg; increase in intracellular Ca2+ caused by acidic solutions, anandamide, PMA and H2O2 ([6]; human recombinant VR1, 3 min incubation in antagonist, dose dependent): completely abolished; pIC50 ([6]; recombinant human VR1, PMA at low pH, Ca2+ influx, read-out: IC50, PKC phosphorylation at low pH): 7.15; pIC50 ([6]; recombinant human VR1, stimulus 0.015% H2O2, Ca2+ influx, read-out: IC50, H2O2 reactive oxygen species): 7.41; pIC50 ([6]; recombinant human VR1, stimulus anandamide 10 μM, Ca2+ influx, read-out: IC50, Anandamide): 7.39; pIC50 [6, 9]: 7.64 and 7.40; increase in intracellular Ca2+ caused by acidic solutions, anandamide, PMA at low pH and H2O2 ([7]; rat recombinant VR1, 3 min incubation in antagonist, dose dependent): completely abolished; pIC50 ([7]; recombinant rat VR1, PMA at low pH, Ca2+ influx, read-out: IC50, PKC phosphorylation at low pH): 7.33; pIC50 ([7]; recombinant rat VR1, stimulus 0.015% H2O2, Ca2+ influx, read-out: IC50, H2O2): 7.48; pIC50 [7, 10]: 7.42; pIC50 ([7]; recombinant rat VR1, stimulus low pH (pH 5.9), Ca2+ influx, read-out: IC50, Low pH): 6.77; pKi [2]: 8.47

Question: Which results are given for `Cl.Cl.Cl.Cl.Cl.Cl.N.N.N.N.N.N.N.N.N.N.N.N.N.N.[O-2].[O-2].[Ru+3].[Ru+3].[Ru+4]` [Ruthenium Red, ruthenium red, reference compound]?
Answer: pIC50 ([6]; recombinant human VR1, stimulus 300 nM PMA, Ca2+ influx, read-out: IC50, PKC phosphorylation): 6.30; pIC50 [6, 9]: 6.30; pIC50 ([7]; recombinant rat VR1, stimulus 300 nM PMA, Ca2+ influx, read-out: IC50, PKC phosphorylation): 6.52; pIC50 [7, 10]: 5.73

Question: How did the “number of capsaicin-induced cough responses (mean ±SEM)” value [8] turn out when `COc1ccc2c3c1O[C@H]1[C@@H](O)C=C[C@H]4[C@@H](C2)N(C)CC[C@@]341` [codeine] was run?
Answer: Its value is 0.58±0.15 coughs.
